Laboratory results: article PMC11992225, “Antibacterial compounds against non-growing and intracellular bacteria” (npj Antimicrobials and Resistance, 2025)
≈ marks a conversion by molar mass, not a printed value. Where “and” joins values, the source holds several entries; their conditions need not be identical. Equal values may be shown once. Read-outs that look alike come from different tables or passages of the source.

What was measured:
[1] = tested on: non-growing P. aeruginosa DSM1117; test: Dose-dependent killing analysis (CFU spot-plating) of stationary-phase P. aeruginosa; assay type: cell-based, Pseudomonas aeruginosa; conditions: for log10(CFU/ml) after treatment / killing, average Δlog10(CFU/ml): P. aeruginosa; for log10(CFU/ml) after treatment: individual replicates; for killing, average Δlog10(CFU/ml): vs CFU before treatment
Summary of the method: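 Viability by CFU: samples serially diluted 10-fold in PBS, spotted on LB agar, grown overnight at 37 °C, and colonies counted at the lowest resolvable dilution. Non-growing P. aeruginosa DSM1117 had been dosed for 24 h in 1:4 CA-MHB (pH 7.4); three biological replicates.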

non-growing UPEC CFT073 [2] = test: Dilution-regrowth assay (screen, hit validation, dose-response) on stationary-phase UPEC; assay type: cell-based, Escherichia coli; conditions: for Regrowth, OD600 at 6h or 8h after dilution into drug-free medium: average; for EC50: Escherichia coli, pH 7.4
Summary of the method: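 Regrowth (OD600 after 6 h, 37 °C) of diluted non-growing CFT073, following 24 h compound treatment of 24 h stationary cultures, defines activity relative to untreated control. Screen at 20 µM, validation at 20, 10, 5 µM (duplicates), dose–response in three biological replicates fitted by five-parameter logistic.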

[3] = tested on: non-growing S. aureus DSM2569; test: Dose-dependent killing analysis (CFU spot-plating) of stationary-phase S. aureus; assay type: cell-based, Staphylococcus aureus; conditions: S. aureus, individual replicates
Summary of the method: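 Survival was scored as CFU after overnight growth at 37 °C on LB agar, using spots from 10-fold PBS dilutions of treated cultures. Non-growing S. aureus DSM2569 had been exposed to compound for 24 h in 1:4 CA-MHB, pH 7.4. Three biological replicates were run.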

non-growing UPEC CFT073 [4] = test: Dose-dependent killing analysis (CFU spot-plating) of stationary-phase UPEC; assay type: cell-based, Escherichia coli; conditions: E. coli in 1:4 CA-MHB (pH 7.4), individual replicates
Summary of the method: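 Killing assessed by CFU counts: overnight 37 °C LB agar spot plates (10 μl drops of 10-fold PBS dilutions) scored at the lowest dilution with distinct colonies. Samples were compound-treated non-growing UPEC CFT073, 200 μl per well. Performed as three biological replicates.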

S. aureus DSM2569 = test: MIC, standard microdilution assay, growing S. aureus; assay type: cell-based, Staphylococcus aureus; conditions: Staphylococcus aureus, DSM2569; S. aureus; CA-MHB pH 7.4; read-out: MIC (μM) CA-MHB
Summary of the method: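 MICs come from microdilution in CA-MHB/40 mM HEPES pH 7.4 for the UPEC, Pseudomonas and Staphylococcus strains, and in TSB for Shigella. UPEC also tested in LPM/30 mM MES pH 5.5.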

[5] = E. coli in 1:4 CA-MHB (pH 7.4), concentration 0.25
[6] = E. coli in 1:4 CA-MHB (pH 7.4), concentration 0.5
[7] = E. coli in 1:4 CA-MHB (pH 7.4), concentration 1
[8] = E. coli in 1:4 CA-MHB (pH 7.4), concentration 2.5
[9] = E. coli in 1:4 CA-MHB (pH 7.4), concentration 5
[10] = E. coli in 1:4 CA-MHB (pH 7.4), concentration 10
[11] = E. coli in 1:4 CA-MHB (pH 7.4), concentration 30
[12] = E. coli in LPM (pH 5.5), concentration 0.25
[13] = E. coli in LPM (pH 5.5), concentration 0.5
[14] = E. coli in LPM (pH 5.5), concentration 1
[15] = E. coli in LPM (pH 5.5), concentration 2.5
[16] = E. coli in LPM (pH 5.5), concentration 5
[17] = E. coli in LPM (pH 5.5), concentration 10
[18] = E. coli in LPM (pH 5.5), concentration 30

SMILES	log10(CFU/ml) after treatment ([1]; concentration 0.1)	killing, average Δlog10(CFU/ml) ([1]; concentration 0.1)	log10(CFU/ml) after treatment ([1]; concentration 0.5)	killing, average Δlog10(CFU/ml) ([1]; concentration 0.5)	log10(CFU/ml) after treatment ([1]; concentration 2.5)	killing, average Δlog10(CFU/ml) ([1]; concentration 2.5)	log10(CFU/ml) after treatment ([1]; concentration 10)	killing, average Δlog10(CFU/ml) ([1]; concentration 10)	Regrowth, OD600 at 6h or 8h after dilution into drug-free medium (non-growing UPEC CFT073 [2]; [5])	Regrowth, OD600 at 6h or 8h after dilution into drug-free medium (non-growing UPEC CFT073 [2]; [6])	Regrowth, OD600 at 6h or 8h after dilution into drug-free medium (non-growing UPEC CFT073 [2]; [7])	Regrowth, OD600 at 6h or 8h after dilution into drug-free medium (non-growing UPEC CFT073 [2]; [8])	Regrowth, OD600 at 6h or 8h after dilution into drug-free medium (non-growing UPEC CFT073 [2]; [9])	Regrowth, OD600 at 6h or 8h after dilution into drug-free medium (non-growing UPEC CFT073 [2]; [10])	Regrowth, OD600 at 6h or 8h after dilution into drug-free medium (non-growing UPEC CFT073 [2]; [11])	Regrowth, OD600 at 6h or 8h after dilution into drug-free medium (non-growing UPEC CFT073 [2]; [12])	Regrowth, OD600 at 6h or 8h after dilution into drug-free medium (non-growing UPEC CFT073 [2]; [13])	Regrowth, OD600 at 6h or 8h after dilution into drug-free medium (non-growing UPEC CFT073 [2]; [14])	Regrowth, OD600 at 6h or 8h after dilution into drug-free medium (non-growing UPEC CFT073 [2]; [15])	Regrowth, OD600 at 6h or 8h after dilution into drug-free medium (non-growing UPEC CFT073 [2]; [16])	other results
N[C@@H]1CCCCN(c2c(F)cc3c(=O)c(C(=O)O)cn(C4CC4)c3c2Cl)C1 [Besifloxacin]	8.000 log10(CFU/ml) and 8.602 log10(CFU/ml) and 8.204 log10(CFU/ml)	0.619 log10(CFU/ml)	7.845 log10(CFU/ml) and 7.699 log10(CFU/ml) (2×)	1.140 log10(CFU/ml)	5.000 log10(CFU/ml) (2×) and 4.699 log10(CFU/ml)	3.988 log10(CFU/ml)	=<4 log10(CFU/ml) (2×) and 4.301 log10(CFU/ml)	4.787 log10(CFU/ml)	0.548	0.480	0.155	0.075	0.073	0.071	0.073	0.547	0.532	0.550	0.548	0.531	reduction of bacterial counts, non-growing P. aeruginosa ([1]; at 2.5 µM, 1:4 CA-MHB pH 7.4, 24 h treatment): more than four; Regrowth, OD600 at 6h or 8h after dilution into drug-free medium (non-growing UPEC CFT073 [2]; [17]): 0.531; Regrowth, OD600 at 6h or 8h after dilution into drug-free medium (non-growing UPEC CFT073 [2]; [18]): 0.471; EC50 (non-growing UPEC CFT073 [2]): 677 nM; log10(CFU/ml) after treatment ([3]; concentration 0.1): 9.061 log10(CFU/ml) and 9.079 log10(CFU/ml) and 8.740 log10(CFU/ml); log10(CFU/ml) after treatment ([3]; concentration 0.5): 8.398 log10(CFU/ml) and 8.431 log10(CFU/ml) and 8.104 log10(CFU/ml); log10(CFU/ml) after treatment ([3]; concentration 2.5): 7.196 log10(CFU/ml) and 7.716 log10(CFU/ml) and 6.826 log10(CFU/ml); log10(CFU/ml) after treatment ([3]; concentration 10): 7.033 log10(CFU/ml) and 7.000 log10(CFU/ml) and 6.100 log10(CFU/ml); log10(CFU/ml) after treatment (non-growing UPEC CFT073 [4]; concentration 0.25): 8.778 log10(CFU/ml) and 8.699 log10(CFU/ml) and 8.477 log10(CFU/ml); log10(CFU/ml) after treatment (non-growing UPEC CFT073 [4]; concentration 0.5): 8.491 log10(CFU/ml) and 8.204 log10(CFU/ml) (2×); log10(CFU/ml) after treatment (non-growing UPEC CFT073 [4]; concentration 1): 7.568 log10(CFU/ml) and 7.322 log10(CFU/ml) and 7.301 log10(CFU/ml); log10(CFU/ml) after treatment (non-growing UPEC CFT073 [4]; concentration 2.5): 6.462 log10(CFU/ml) and 6.204 log10(CFU/ml) and 6.342 log10(CFU/ml); log10(CFU/ml) after treatment (non-growing UPEC CFT073 [4]; concentration 5): 6.398 log10(CFU/ml) and 5.342 log10(CFU/ml) and 5.362 log10(CFU/ml); log10(CFU/ml) after treatment (non-growing UPEC CFT073 [4]; concentration 10): 6.114 log10(CFU/ml) and 5.230 log10(CFU/ml) and 5.000 log10(CFU/ml); MIC (S. aureus DSM2569): 0.25 µM (≈ 0.0985 µg/mL)
COc1c(N2C[C@@H]3CCCN[C@@H]3C2)c(F)cc2c(=O)c(C(=O)O)cn(C3CC3)c12 [Moxifloxacin]	8.699 log10(CFU/ml) and 8.778 log10(CFU/ml) and 8.477 log10(CFU/ml)	0.236 log10(CFU/ml)	8.301 log10(CFU/ml) and 7.778 log10(CFU/ml) (2×)	0.935 log10(CFU/ml)	5.845 log10(CFU/ml) and 6.301 log10(CFU/ml) and 4.699 log10(CFU/ml)	3.272 log10(CFU/ml)	=<4 log10(CFU/ml) (2×) and 4.477 log10(CFU/ml)	4.728 log10(CFU/ml)	0.565	0.481	0.120	0.067	0.066	0.068	0.065	0.577	0.563	0.570	0.577	0.574	Regrowth, OD600 at 6h or 8h after dilution into drug-free medium (non-growing UPEC CFT073 [2]; [17]): 0.567; Regrowth, OD600 at 6h or 8h after dilution into drug-free medium (non-growing UPEC CFT073 [2]; [18]): 0.530; EC50 (non-growing UPEC CFT073 [2]; E. coli, regrowth delay of non-growing bacteria, 1:4 CA-MHB, 24 h treatment, OD600 6 h after 2500-fold dilution, read-out: EC50): 649 nM; log10(CFU/ml) after treatment ([3]; concentration 0.1): 8.934 log10(CFU/ml) and 9.196 log10(CFU/ml) and 8.708 log10(CFU/ml); log10(CFU/ml) after treatment ([3]; concentration 0.5): 8.748 log10(CFU/ml) and 9.004 log10(CFU/ml) and 8.204 log10(CFU/ml); log10(CFU/ml) after treatment ([3]; concentration 2.5): 8.505 log10(CFU/ml) and 8.431 log10(CFU/ml) and 8.167 log10(CFU/ml); log10(CFU/ml) after treatment ([3]; concentration 10): 8.158 log10(CFU/ml) and 8.021 log10(CFU/ml) and 7.519 log10(CFU/ml); log10(CFU/ml) after treatment (non-growing UPEC CFT073 [4]; concentration 0.25): 8.602 log10(CFU/ml) and 8.380 log10(CFU/ml) and 8.255 log10(CFU/ml); log10(CFU/ml) after treatment (non-growing UPEC CFT073 [4]; concentration 0.5): 8.041 log10(CFU/ml) and 7.903 log10(CFU/ml) and 7.699 log10(CFU/ml); log10(CFU/ml) after treatment (non-growing UPEC CFT073 [4]; concentration 1): 7.415 log10(CFU/ml) and 6.845 log10(CFU/ml) and 6.903 log10(CFU/ml); log10(CFU/ml) after treatment (non-growing UPEC CFT073 [4]; concentration 2.5): 5.954 log10(CFU/ml) and 5.230 log10(CFU/ml) and 5.380 log10(CFU/ml); log10(CFU/ml) after treatment (non-growing UPEC CFT073 [4]; concentration 5): 5.602 log10(CFU/ml) and 5.204 log10(CFU/ml) and 5.146 log10(CFU/ml); log10(CFU/ml) after treatment (non-growing UPEC CFT073 [4]; concentration 10): 6.114 log10(CFU/ml) and 4.903 log10(CFU/ml) and 5.000 log10(CFU/ml); MIC (S. aureus DSM2569): 0.125 µM (≈ 0.0502 µg/mL)
